From PMC12390941, “Ubiquitin-specific protease 7-mediated stabilization of discoidin domain receptor 1 drives progression of TP53-Mutant cancers” (The Journal of Biological Chemistry, 2025)
Where two headings read alike, the source gives them in different places.

How the values were obtained:
USP7 = USP7 (Homo sapiens, UniProt Q93009); test: biochemical
USP11 = USP11 (Homo sapiens, UniProt P51784); test: selectivity panel of […] purified DUBs, ubiquitin-AMC substrate; ABPP DUBome; assay type: biochemical
Chain of USP11 (P51784 whole entry): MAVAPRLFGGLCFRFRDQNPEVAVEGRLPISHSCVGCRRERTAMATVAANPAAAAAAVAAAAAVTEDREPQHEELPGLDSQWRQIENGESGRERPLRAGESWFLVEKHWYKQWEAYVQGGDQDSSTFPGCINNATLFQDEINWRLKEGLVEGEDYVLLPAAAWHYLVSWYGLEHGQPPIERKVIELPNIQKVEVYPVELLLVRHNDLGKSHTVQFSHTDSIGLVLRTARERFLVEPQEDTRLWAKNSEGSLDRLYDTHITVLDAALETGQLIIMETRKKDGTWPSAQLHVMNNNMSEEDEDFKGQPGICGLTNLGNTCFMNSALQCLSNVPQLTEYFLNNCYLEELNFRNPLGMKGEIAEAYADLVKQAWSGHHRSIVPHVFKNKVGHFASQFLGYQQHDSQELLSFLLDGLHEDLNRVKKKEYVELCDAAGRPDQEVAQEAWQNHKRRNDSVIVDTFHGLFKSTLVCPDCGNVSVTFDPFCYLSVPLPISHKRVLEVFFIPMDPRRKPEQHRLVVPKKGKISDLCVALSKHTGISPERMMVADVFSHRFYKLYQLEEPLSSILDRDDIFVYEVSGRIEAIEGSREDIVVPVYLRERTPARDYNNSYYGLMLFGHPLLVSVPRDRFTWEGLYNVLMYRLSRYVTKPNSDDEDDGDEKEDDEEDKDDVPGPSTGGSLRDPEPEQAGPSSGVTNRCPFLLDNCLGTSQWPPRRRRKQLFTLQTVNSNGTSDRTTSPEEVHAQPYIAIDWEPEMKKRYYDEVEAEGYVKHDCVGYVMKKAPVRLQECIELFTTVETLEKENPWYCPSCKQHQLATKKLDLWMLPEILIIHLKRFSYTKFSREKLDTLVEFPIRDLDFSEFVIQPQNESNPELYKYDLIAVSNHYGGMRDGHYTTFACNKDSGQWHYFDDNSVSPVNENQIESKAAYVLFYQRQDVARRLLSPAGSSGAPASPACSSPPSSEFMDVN

USP2 = USP2 (Homo sapiens, UniProt O75604); test: selectivity panel of […] purified DUBs, ubiquitin-AMC substrate; assay type: biochemical
Chain of USP2 (O75604 whole entry): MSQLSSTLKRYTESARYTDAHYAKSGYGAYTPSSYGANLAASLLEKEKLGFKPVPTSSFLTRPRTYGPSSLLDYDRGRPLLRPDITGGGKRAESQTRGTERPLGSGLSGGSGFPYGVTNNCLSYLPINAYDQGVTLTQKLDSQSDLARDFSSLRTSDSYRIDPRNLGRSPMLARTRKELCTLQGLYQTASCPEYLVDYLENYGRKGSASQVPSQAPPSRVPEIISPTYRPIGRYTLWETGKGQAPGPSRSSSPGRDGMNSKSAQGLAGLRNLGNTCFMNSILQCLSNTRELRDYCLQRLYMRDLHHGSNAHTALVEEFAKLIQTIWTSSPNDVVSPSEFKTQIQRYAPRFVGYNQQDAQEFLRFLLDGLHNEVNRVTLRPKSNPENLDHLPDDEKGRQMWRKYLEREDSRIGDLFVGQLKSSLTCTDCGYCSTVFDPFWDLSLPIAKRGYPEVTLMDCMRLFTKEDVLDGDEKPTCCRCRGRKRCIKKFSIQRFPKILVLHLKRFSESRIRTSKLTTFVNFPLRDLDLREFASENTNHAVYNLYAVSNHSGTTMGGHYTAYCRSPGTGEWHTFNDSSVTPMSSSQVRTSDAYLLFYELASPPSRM

USP1 = target: T1, USP1 (Homo sapiens, UniProt O94782); test: selectivity panel of […] purified DUBs, ubiquitin-AMC substrate; ABPP DUBome; assay type: biochemical
T1 sequence (O94782 1-785): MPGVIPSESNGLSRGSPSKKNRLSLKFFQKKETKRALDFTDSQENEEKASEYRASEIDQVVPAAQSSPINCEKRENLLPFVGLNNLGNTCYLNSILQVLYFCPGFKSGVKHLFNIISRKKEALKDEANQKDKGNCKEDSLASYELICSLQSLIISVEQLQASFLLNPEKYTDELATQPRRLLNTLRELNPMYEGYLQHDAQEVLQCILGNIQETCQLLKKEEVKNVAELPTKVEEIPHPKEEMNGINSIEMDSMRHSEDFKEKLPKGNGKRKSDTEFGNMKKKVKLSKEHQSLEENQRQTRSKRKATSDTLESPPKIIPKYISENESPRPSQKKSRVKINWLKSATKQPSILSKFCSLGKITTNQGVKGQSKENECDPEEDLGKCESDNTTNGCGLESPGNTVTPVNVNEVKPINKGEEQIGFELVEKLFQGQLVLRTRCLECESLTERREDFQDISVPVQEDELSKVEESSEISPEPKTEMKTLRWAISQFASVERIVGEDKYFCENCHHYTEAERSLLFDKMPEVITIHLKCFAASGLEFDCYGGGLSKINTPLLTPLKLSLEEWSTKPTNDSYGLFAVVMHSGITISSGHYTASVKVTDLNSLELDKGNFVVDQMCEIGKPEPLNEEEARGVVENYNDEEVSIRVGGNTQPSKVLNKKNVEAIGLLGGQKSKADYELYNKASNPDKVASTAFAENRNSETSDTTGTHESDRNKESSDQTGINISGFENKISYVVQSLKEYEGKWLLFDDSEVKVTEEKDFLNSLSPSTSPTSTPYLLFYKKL

Chain of USP7 (Q93009 whole entry): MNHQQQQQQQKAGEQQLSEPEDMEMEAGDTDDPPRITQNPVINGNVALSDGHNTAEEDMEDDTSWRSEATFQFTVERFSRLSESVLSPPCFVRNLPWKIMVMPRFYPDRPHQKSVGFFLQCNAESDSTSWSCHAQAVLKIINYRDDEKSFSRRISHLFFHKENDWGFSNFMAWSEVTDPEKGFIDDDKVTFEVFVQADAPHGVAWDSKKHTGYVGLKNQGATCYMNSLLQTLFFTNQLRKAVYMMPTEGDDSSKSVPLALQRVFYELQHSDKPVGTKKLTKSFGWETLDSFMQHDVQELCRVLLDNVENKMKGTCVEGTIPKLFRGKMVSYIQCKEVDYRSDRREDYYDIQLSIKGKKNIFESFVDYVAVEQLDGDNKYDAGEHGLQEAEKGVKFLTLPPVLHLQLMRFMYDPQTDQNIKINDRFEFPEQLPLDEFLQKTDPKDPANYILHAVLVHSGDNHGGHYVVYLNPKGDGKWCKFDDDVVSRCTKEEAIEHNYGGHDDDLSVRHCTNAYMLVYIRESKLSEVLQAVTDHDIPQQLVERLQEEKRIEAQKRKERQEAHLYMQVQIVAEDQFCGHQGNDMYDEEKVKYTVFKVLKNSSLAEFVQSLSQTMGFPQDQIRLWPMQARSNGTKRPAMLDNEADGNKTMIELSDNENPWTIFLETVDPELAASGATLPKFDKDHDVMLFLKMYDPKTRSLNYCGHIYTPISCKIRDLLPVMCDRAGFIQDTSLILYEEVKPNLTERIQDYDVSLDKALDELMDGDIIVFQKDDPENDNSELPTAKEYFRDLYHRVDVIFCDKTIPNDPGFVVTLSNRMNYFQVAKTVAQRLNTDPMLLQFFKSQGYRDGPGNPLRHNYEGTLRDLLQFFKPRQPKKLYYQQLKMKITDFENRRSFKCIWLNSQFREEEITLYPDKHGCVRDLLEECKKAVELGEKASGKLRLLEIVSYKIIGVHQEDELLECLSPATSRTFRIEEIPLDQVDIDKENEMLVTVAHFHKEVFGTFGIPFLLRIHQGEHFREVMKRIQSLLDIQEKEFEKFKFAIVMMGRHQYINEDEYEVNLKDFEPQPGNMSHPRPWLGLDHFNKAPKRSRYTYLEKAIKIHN

IC50 (USP7) | SMILES | selectivity panel of 41 purified DUBs, ubiquitin-AMC substrate; ABPP DUBome (USP11) | selectivity panel of 41 purified DUBs, ubiquitin-AMC substrate (USP2) | selectivity panel of 41 purified DUBs, ubiquitin-AMC substrate; ABPP DUBome (USP1) | IC50 (USP7; read-out: IC50)
0.286 µM | O=C(C[C@@H](C(F)F)n1ccc(F)n1)N1CCC(O)(Cn2cnc3c(cnn3-c3ccc(F)cc3)c2=O)CC1 [FT671] |  |  |  | 
 | Cc1ccc(/C=C2\CNC/C(=C\c3ccc(C)cc3)C2=O)cc1 [NSC632839] | This screening identified USP7, USP11, USP2, and USP1 as the key targets. | This screening identified USP7, USP11, USP2, and USP1 as the key targets. | This screening identified USP7, USP11, USP2, and USP1 as the key targets. | 3.82 µM
